Results taken from ChEMBL document CHEMBL1909046, “DrugMatrix in vitro pharmacology data”.

Columns and labels:
[1] = target: 5-hydroxytryptamine receptor 4 (Cavia porcellus, UniProt O70528); format: cell membranes, Dunkin-Hartley, Striatum, Membrane; note: in other assays of this panel Not Active means under 50% inhibition at 10 µM
[2] = target: Sigma non-opioid intracellular receptor 1 (Homo sapiens, UniProt Q99720); assay: DRUGMATRIX: Sigma1 radioligand binding (ligand: [3H] Haloperidol); format: cell membranes, Jurkat, Membrane; conditions: jurkat; Not Active = under 50% inhibition at 10 µM
[3] = target: T1, Cysteinyl leukotriene receptor 1 (Homo sapiens, UniProt Q9Y271); format: cell membranes, CHO-K1, Membrane; conditions: cho-k1; note: in other assays of this panel Not Active means under 50% inhibition at 10 µM
T1 sequence (Q9Y271 whole entry): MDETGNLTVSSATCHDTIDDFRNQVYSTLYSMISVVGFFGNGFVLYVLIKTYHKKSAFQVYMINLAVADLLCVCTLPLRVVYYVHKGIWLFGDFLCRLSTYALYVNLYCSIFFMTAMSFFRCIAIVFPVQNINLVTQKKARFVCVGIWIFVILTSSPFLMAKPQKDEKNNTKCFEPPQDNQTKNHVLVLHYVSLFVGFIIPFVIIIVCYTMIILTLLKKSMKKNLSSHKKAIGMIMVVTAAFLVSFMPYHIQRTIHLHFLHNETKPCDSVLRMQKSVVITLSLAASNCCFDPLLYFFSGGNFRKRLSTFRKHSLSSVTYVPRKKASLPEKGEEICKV

[4] = target: Melanocortin receptor 5 (Homo sapiens, UniProt P33032); format: cell membranes, HEK293, Membrane; conditions: hek293; note: in other assays of this panel Not Active means under 50% inhibition at 10 µM
[5] = target: T2, Progesterone receptor (Bos taurus, UniProt Q690N0); assay: DRUGMATRIX: Progesterone radioligand binding (ligand: [3H] R-5020); format: tissue-based, Uterus; conditions: Not Active = under 50% inhibition at 10 µM
T2 sequence (Q690N0 whole entry): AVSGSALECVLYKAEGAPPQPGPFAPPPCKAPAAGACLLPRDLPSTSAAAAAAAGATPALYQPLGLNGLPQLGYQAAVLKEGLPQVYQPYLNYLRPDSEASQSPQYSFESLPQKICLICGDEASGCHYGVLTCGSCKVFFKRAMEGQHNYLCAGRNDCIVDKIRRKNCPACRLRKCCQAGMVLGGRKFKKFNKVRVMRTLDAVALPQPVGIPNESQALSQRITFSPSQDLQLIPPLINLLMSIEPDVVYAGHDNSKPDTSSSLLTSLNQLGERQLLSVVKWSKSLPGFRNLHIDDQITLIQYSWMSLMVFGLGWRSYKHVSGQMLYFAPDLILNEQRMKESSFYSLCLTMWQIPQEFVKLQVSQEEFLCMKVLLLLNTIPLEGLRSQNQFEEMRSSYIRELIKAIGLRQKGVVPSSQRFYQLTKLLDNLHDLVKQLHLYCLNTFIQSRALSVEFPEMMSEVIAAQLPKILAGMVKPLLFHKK

[6] = target: Mitogen-activated protein kinase 3 (Homo sapiens, UniProt P27361); assay: DRUGMATRIX: Protein Serine/Threonine Kinase, ERK1 enzyme inhibition (substrate: Myelin Basic Protein); set-up: species or system Escherichia coli; conditions: Not Active = under 50% inhibition at 10 µM
[7] = target: Mitogen-activated protein kinase 1 (Homo sapiens, UniProt P28482); assay: DRUGMATRIX: Protein Serine/Threonine Kinase, ERK2 enzyme inhibition (substrate: Myelin Basic Protein); set-up: species or system Escherichia coli; conditions: Not Active = under 50% inhibition at 10 µM
[8] = target: T3, Receptor-type tyrosine-protein phosphatase C (Homo sapiens, UniProt P08575); set-up: species or system Escherichia coli;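 note: inhibition of CD45 enzyme activity measured using DiFMUP as substrate; in other assays of this panel Not Active means under 50% inhibition at 10 µM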
T3 sequence (P08575 whole entry): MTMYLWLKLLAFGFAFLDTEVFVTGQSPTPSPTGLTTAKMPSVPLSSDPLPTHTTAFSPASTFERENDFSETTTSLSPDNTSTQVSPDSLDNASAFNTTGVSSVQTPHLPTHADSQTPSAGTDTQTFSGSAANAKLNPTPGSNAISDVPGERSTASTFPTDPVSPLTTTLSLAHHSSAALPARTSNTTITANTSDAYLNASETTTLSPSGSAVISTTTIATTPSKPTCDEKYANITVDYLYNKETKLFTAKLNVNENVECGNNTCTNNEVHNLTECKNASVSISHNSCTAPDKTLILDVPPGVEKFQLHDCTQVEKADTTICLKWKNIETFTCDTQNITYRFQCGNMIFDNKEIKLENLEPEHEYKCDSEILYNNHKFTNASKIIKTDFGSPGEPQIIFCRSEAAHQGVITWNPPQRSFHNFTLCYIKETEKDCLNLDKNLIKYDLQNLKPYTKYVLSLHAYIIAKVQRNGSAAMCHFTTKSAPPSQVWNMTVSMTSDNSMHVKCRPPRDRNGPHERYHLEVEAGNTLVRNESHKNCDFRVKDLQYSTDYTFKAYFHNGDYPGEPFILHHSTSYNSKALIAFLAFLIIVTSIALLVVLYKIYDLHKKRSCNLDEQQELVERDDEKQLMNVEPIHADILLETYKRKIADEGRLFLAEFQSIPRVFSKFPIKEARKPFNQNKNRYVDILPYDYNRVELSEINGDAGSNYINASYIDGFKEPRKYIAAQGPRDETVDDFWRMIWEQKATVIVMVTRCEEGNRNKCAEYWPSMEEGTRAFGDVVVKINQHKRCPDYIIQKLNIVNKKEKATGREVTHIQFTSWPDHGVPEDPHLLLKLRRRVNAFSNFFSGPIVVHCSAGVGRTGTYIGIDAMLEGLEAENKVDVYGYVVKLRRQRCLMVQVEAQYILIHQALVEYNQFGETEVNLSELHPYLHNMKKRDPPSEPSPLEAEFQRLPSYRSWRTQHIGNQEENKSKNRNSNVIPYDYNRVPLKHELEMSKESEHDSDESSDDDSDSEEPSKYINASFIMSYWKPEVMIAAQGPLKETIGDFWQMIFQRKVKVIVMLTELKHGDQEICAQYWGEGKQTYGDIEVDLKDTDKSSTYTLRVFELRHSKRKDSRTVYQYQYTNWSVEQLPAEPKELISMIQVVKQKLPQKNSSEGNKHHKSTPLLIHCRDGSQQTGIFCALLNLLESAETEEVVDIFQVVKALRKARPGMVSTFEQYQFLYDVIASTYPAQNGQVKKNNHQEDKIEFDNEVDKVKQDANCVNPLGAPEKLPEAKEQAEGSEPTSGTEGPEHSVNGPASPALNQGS

[9] = target: T4, Adenosine receptor A1 (Homo sapiens, UniProt P30542); format: cell membranes, CHO, Membrane
T4 sequence (P30542 whole entry): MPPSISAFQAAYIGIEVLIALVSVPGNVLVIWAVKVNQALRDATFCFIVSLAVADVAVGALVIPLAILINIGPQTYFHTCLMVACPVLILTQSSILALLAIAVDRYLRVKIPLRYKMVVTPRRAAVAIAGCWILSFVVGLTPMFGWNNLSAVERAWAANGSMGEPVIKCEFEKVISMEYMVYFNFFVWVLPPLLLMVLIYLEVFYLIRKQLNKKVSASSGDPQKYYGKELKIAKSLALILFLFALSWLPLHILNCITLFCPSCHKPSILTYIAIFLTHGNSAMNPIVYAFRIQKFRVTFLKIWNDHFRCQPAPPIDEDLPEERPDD

Chain of 5-hydroxytryptamine receptor 4 (O70528 whole entry): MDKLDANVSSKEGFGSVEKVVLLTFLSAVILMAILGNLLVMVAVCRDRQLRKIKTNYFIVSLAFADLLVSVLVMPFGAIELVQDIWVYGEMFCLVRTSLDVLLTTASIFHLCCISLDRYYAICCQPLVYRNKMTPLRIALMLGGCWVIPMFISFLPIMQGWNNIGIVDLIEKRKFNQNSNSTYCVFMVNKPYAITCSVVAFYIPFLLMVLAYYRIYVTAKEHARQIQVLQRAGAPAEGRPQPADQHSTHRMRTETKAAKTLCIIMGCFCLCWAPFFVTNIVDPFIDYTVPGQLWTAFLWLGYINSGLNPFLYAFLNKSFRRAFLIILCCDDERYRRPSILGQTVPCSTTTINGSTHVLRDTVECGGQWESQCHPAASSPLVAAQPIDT
Chain of Mitogen-activated protein kinase 1 (P28482 whole entry): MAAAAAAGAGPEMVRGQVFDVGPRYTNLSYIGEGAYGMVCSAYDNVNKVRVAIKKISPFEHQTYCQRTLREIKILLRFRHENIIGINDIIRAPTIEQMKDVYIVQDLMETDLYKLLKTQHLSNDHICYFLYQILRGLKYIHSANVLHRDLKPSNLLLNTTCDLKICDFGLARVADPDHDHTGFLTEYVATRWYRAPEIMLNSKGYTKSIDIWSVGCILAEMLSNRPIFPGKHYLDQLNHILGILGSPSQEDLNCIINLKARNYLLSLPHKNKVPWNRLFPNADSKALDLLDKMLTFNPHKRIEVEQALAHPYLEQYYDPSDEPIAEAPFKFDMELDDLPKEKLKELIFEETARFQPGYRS
Chain of Sigma non-opioid intracellular receptor 1 (Q99720 whole entry): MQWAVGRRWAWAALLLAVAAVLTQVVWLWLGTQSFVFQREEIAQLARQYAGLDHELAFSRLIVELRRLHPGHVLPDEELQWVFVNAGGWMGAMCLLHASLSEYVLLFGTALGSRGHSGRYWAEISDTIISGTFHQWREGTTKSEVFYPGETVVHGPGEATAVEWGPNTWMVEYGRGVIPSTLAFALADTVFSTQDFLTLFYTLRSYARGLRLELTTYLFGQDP
Chain of Melanocortin receptor 5 (P33032 whole entry): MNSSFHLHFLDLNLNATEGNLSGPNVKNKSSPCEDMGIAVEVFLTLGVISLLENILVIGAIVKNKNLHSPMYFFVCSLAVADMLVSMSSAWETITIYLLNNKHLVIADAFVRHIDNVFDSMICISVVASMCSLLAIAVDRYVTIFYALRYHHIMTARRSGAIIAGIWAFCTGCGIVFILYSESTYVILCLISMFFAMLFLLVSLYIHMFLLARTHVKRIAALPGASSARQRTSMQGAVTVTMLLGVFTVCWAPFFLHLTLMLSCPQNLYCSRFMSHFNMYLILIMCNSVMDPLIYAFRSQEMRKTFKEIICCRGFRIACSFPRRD
Chain of Mitogen-activated protein kinase 3 (P27361 whole entry): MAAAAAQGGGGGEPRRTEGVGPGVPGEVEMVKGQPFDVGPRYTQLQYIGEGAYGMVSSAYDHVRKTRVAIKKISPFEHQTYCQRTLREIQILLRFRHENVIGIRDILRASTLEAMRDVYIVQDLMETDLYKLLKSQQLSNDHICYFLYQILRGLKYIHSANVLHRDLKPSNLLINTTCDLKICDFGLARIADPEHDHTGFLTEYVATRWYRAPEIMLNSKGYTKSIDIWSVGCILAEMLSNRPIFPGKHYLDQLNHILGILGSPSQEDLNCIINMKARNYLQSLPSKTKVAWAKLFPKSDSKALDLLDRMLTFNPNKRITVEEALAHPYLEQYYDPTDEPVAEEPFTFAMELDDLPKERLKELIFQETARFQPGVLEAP

Row | SMILES | IC50 [1] | IC50 [2] | IC50 [3] | IC50 [4] | IC50 [5] | IC50 [6] | IC50 [7] | IC50 [8] | IC50 ([9]; cho) | further results
1 | O=C1c2c(O)ccc(O)c2C(=O)c2c(NCCNCCO)ccc(NCCNCCO)c21 [MITOXANTRONE] | Not Active | Not Active | Not Active | Not Active | Not Active | Not Active | Not Active | Not Active | Not Active | 
2 | COc1c(C)c2c(c(O)c1C/C=C(\C)CCC(=O)OCCN1CCOCC1)C(=O)OC2 [MYCOPHENOLATE MOFETIL] | Not Active | Not Active | Not Active | Not Active | Not Active | Not Active | Not Active | Not Active | Not Active | 
3 | COC(=O)C1=C(C)NC(C)=C(C(=O)OC)C1c1ccccc1[N+](=O)[O-] [NIFEDIPINE] | Not Active | Not Active | Not Active | Not Active | Not Active | Not Active | Not Active | Not Active |  | IC50 ([9]; read-out: IC50): 7700 nM; Ki ([9]; read-out: Ki): 4490 nM
4 | NNc1ccccc1 [PHENYLHYDRAZINE] | Not Active | Not Active | Not Active | Not Active | Not Active | Not Active | Not Active | Not Active | Not Active | 
5 | NC(=O)c1ncn([C@@H]2O[C@H](CO)[C@@H](O)[C@H]2O)n1 [RIBAVIRIN] | Not Active | Not Active | Not Active | Not Active | Not Active | Not Active | Not Active | Not Active | Not Active | 
6 | O=[N+]([O-])c1cc([As](=O)(O)O)ccc1O [ROXARSONE] | Not Active | Not Active | Not Active | Not Active | Not Active | Not Active | Not Active | Not Active | Not Active | Ki [1]: Not Active; Ki [2]: Not Active; Ki [3]: Not Active; Ki [4]: Not Active; Ki [5]: Not Active; Ki [6]: Not Active; Ki [7]: Not Active; Ki [8]: Not Active; Ki ([9]; cho): Not Active
7 | CC[C@H]1OC(=O)[C@H](C)[C@@H](O[C@H]2C[C@@](C)(OC)[C@@H](O)[C@H](C)O2)[C@H](C)[C@@H](O[C@@H]2O[C@H](C)C[C@H](N(C)C)[C@H]2O)[C@](C)(O)C[C@@H](C)/C(=N\OCOCCOC)[C@H](C)[C@@H](O)[C@]1(C)O [ROXITHROMYCIN] | Not Active | Not Active | Not Active | Not Active | Not Active | Not Active | Not Active | Not Active | Not Active | 
8 | NC(=O)c1ccccc1O [SALICYLAMIDE] | Not Active | Not Active | Not Active | Not Active | Not Active | Not Active | Not Active | Not Active | Not Active | 
9 | Cc1ncc([N+](=O)[O-])n1CC(C)O (stereo not given) [SECNIDAZOLE] | Not Active | Not Active | Not Active | Not Active | Not Active | Not Active | Not Active | Not Active | Not Active | 
10 | CN[C@@H]1[C@@H](O)[C@@H](O[C@@H]2[C@@H](O)[C@H](O[C@H]3OC(CN)=CC[C@H]3N)[C@@H](N)C[C@H]2N)OC[C@]1(C)O [SISOMICIN] | Not Active | Not Active | Not Active | Not Active | Not Active | Not Active | Not Active | Not Active | Not Active | 
11 | CC(=O)S[C@@H]1CC2=CC(=O)CC[C@]2(C)[C@H]2CC[C@@]3(C)[C@@H](CC[C@@]34CCC(=O)O4)[C@H]12 [SPIRONOLACTONE] | Not Active | Not Active | Not Active | Not Active |  | Not Active | Not Active | Not Active | Not Active | IC50 ([5]; read-out: IC50): 1670 nM; Ki ([5]; read-out: Ki): 217 nM
12 | C[C@]12Cc3c[nH]nc3C[C@@H]1CC[C@@H]1[C@@H]2CC[C@@]2(C)[C@H]1CC[C@]2(C)O [STANOZOLOL] | Not Active | Not Active | Not Active | Not Active |  | Not Active | Not Active | Not Active | Not Active | IC50 ([5]; read-out: IC50): 3710 nM; Ki ([5]; read-out: Ki): 483 nM
